27 molecules from patent publication US20230167073A1 (Teijin Pharma Limited, priority 2020, published 2023) can be followed below.

For the experiment, the target named is T1, Human TRPC6 (Homo sapiens, UniProt Q9Y210).
T1 construct: expressed in transfected cells
T1 sequence (Q9Y210 1-931): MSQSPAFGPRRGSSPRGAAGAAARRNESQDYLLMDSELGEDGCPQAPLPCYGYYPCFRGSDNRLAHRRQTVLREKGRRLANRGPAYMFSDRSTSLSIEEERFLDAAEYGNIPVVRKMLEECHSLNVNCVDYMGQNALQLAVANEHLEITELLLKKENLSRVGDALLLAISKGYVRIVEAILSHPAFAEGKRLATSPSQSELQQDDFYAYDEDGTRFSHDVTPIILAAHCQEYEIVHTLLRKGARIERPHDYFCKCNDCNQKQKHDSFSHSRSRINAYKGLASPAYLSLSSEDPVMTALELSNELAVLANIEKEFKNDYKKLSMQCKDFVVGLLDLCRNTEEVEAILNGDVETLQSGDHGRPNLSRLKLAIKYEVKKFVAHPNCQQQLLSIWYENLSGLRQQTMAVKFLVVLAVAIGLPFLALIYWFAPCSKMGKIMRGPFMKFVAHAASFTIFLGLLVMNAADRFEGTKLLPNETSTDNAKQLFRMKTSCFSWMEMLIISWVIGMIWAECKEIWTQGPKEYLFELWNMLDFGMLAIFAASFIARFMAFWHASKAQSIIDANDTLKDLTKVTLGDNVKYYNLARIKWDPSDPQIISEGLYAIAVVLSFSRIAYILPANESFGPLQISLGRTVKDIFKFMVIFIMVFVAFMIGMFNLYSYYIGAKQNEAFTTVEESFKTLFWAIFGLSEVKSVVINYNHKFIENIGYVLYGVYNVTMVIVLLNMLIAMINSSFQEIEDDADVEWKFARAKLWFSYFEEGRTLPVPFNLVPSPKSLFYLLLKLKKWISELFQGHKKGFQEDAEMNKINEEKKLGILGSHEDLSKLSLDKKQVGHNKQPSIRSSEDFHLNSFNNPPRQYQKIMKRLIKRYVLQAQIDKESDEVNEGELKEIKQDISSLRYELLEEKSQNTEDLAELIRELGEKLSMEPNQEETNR
In words: Evaluation of TRPC6 channel inhibitory activity (1), FLIPR Calcium 5 Assay Kit, OAG stimulation (Compound Nos. 1-1293). The settings on record: Human TRPC6 stably-expressing cells, OAG 30 μM, FLIPR Calcium 5 Assay Kit; read-out: Inhibitory activity (pIC50 class) (converted). The format is cell-based. In short, it runs like this:
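TRPC6 (human) stable cells, 24 h culture; Ca5 no-wash dye + probenecid 30 min; cpd 20 min; OAG 30 μM final; ΔF (pre-cpd min to post-OAG max); 0%/100% = no cpd / no cpd + no OAG; 4PL → pIC50, binned +/++/+++.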

As to `Cc1c(Oc2cc(F)ccc2-c2ncc(CCN)cn2)cnn1C(C)C` [compound 984, 2-[2-[4-fluoro-2-(5-methyl-1-propan-2-ylpyrazol-4-yl)oxyphenyl]pyrimidin-5-yl]ethanamine], the IC50 is 10 to 1000 nM. In the case of `Cc1nn(CC(C)(C)C)cc1Oc1cc(F)ccc1-c1ncc(CCN)cn1` [compound 985, 2-[2-[2-[1-(2,2-dimethylpropyl)-3-methylpyrazol-4-yl]oxy-4-fluorophenyl]pyrimidin-5-yl]ethanamine], the IC50 was less than 10 nM. For `Cc1c(Oc2cc(F)ccc2-c2ncc(CCN)cn2)cnn1CC(C)(C)C` [compound 986, 2-[2-[2-[1-(2,2-dimethylpropyl)-5-methylpyrazol-4-yl]oxy-4-fluorophenyl]pyrimidin-5-yl]ethanamine] the value was 10 to 1000 nM; for `CN(CC(F)F)c1cc(Oc2cc(F)ccc2-c2ncc(CCN)cn2)n(C)n1` [compound 987, 5-[2-[5-(2-aminoethyl)pyrimidin-2-yl]-5-fluorophenoxy]-N-(2,2-difluoroethyl)-N,1-dimethylpyrazole-3-amine], less than 10 nM; for `CN(CC(F)F)c1cc(Oc2cc(F)ccc2-c2ccc(CCN)cn2)n(C)n1` [compound 988, 5-[2-[5-(2-aminoethyl)pyridin-2-yl]-5-fluorophenoxy]-N-(2,2-difluoroethyl)-N,1-dimethylpyrazole-3-amine], less than 10 nM.

For `CCN(CC(F)F)c1cc(Oc2cc(F)ccc2-c2ncc(CCN)cn2)n(C)n1` [compound 989, 5-[2-[5-(2-aminoethyl)pyrimidin-2-yl]-5-fluorophenoxy]-N-(2,2-difluoroethyl)-N-ethyl-1-methylpyrazole-3-amine], the IC50 was less than 10 nM. In the case of `CCN(CC(F)F)c1cc(Oc2cc(F)ccc2-c2ccc(CCN)cn2)n(C)n1` [compound 990, 5-[2-[5-(2-aminoethyl)pyridin-2-yl]-5-fluorophenoxy]-N-(2,2-difluoroethyl)-N-ethyl-1-methylpyrazole-3-amine], the IC50 was less than 10 nM. For `CCN(CC)c1cc(Oc2cc(F)ccc2-c2ccc(CCN)cn2)n(C)n1` [compound 991, 5-[2-[5-(2-aminoethyl)pyridin-2-yl]-5-fluorophenoxy]-N,N-diethyl-1-methylpyrazole-3-amine] the value was less than 10 nM.

Consider `CCN(CC)c1cc(Oc2cc(F)ccc2-c2ncc(CN)cn2)n(C)n1` [compound 992, 5-[2-[5-(aminomethyl)pyrimidin-2-yl]-5-fluorophenoxy]-N,N-diethyl-1-methylpyrazole-3-amine], for which the IC50 was less than 10 nM.

Consider `CN(CC(F)F)c1cc(Oc2cc(F)ccc2-c2ncc(CN)cn2)n(C)n1` [compound 993, 5-[2-[5-(aminomethyl)pyrimidin-2-yl]-5-fluorophenoxy]-N-(2,2-difluoroethyl)-N,1-dimethylpyrazole-3-amine], for which the IC50 was 10 to 1000 nM. Consider `CCN(CC(F)F)c1cc(Oc2cc(F)ccc2-c2ncc(CN)cn2)n(C)n1` [compound 994, 5-[2-[5-(aminomethyl)pyrimidin-2-yl]-5-fluorophenoxy]-N-(2,2-difluoroethyl)-N-ethyl-1 methylpyrazole-3-amine], for which the IC50 was 10 to 1000 nM. `Cn1nc(N2CCCC2)cc1Oc1cc(F)ccc1-c1ncc(CN)cn1` [compound 995, [2-[4-fluoro-2-(2-methyl-5-pyrrolidin-1-ylpyrazol-3-yl)oxyphenyl]pyrimidin-5-yl]methanamine]: the IC50 is 10 to 1000 nM. The result for `Cn1nc(N2CCCC2)cc1Oc1cc(F)ccc1-c1ccc(CN)cn1` [compound 996, [6-[4-fluoro-2-(2-methyl-5-pyrrolidin-1-ylpyrazol-3-yl)oxyphenyl]pyridin-3-yl]methanamine] reads less than 10 nM; that for `CN(C)c1cc(Oc2cc(F)ccc2-c2ncc(CN)cn2)n(C)n1` [compound 997, 5-[2-[5-(aminomethyl)pyrimidin-2-yl]-5-fluorophenoxy]-N,N,1 trimethylpyrazole-3-amine], 10 to 1000 nM. For `CN(C)c1cc(Oc2cc(F)ccc2-c2ccc(CN)cn2)n(C)n1` [compound 998, 5-[2-[5-(aminomethyl)pyridin-2-yl]-5-fluorophenoxy]-N,N,1-trimethylpyrazole-3-amine] the value was 10 to 1000 nM; for `CN(C)c1cc(Oc2cc(F)ccc2-c2ncc(CCN)cn2)n(C)n1` [compound 999, 5-[2-[5-(2-aminoethyl)pyrimidin-2-yl]-5-fluorophenoxy]-N,N,1-trimethylpyrazole-3-amine], 10 to 1000 nM. For `CN(C)c1cc(Oc2cc(F)ccc2-c2ccc(CCN)cn2)n(C)n1` [compound 1000, 5-[2-[5-(2-aminoethyl)pyridin-2-yl]-5-fluorophenoxy]-N,N,1-trimethylpyrazole-3-amine] the value was less than 10 nM; for `Cc1nc(Oc2cc(F)ccc2-c2ccc(CCN)cn2)cc(N2CCOCC2)n1` [compound 1001, 2-[6-[4-fluoro-2-(2-methyl-6-morpholin-4-ylpyrimidin-4-yl)oxyphenyl]pyridin-3-yl]ethanamine], less than 10 nM; for `Cc1nc(Oc2cc(F)ccc2-c2ncc(CN)cn2)cc(N2CCOCC2)n1` [compound 1002, [2-[4-fluoro-2-(2-methyl-6-morpholin-4-ylpyrimidin-4-yl)oxyphenyl]pyrimidin-5-yl]methanamine], greater than 1000 nM. For the molecule `Cc1nc(Oc2cc(F)ccc2-c2ccc(CN)cn2)cc(N2CCOCC2)n1` [compound 1003, [6-[4-fluoro-2-(2-methyl-6-morpholin-4-ylpyrimidin-4-yl)oxyphenyl]pyridin-3-yl]methanamine], the IC50 is 10 to 1000 nM. For `NCCc1cnc(-c2ccc(F)cc2Oc2cnn(-c3ccccn3)c2)nc1` [compound 1004, 2-[2-[4-fluoro-2-(1-pyridin-2-ylpyrazol-4-yl)oxyphenyl]pyrimidin-5-yl]ethanamine] the value was 10 to 1000 nM; for `NCCc1cnc(-c2ccc(F)cc2Oc2cnn(CC(F)F)c2)nc1` [compound 1005, 2-[2-[2-[1-(2,2-difluoroethyl)pyrazol-4-yl]oxy-4-fluorophenyl]pyrimidin-5-yl]ethanamine], greater than 1000 nM. The result for `NCCc1ccc(-c2ccc(F)cc2Oc2cnnc(N3CCOCC3)c2)nc1` [compound 1006, 2-[6-[4-fluoro-2-(6-morpholin-4-ylpyridazin-4-yl)oxyphenyl]pyridin-3-yl]ethanamine] reads 10 to 1000 nM; that for `Cn1nc(C2CCOCC2)cc1Oc1cc(F)ccc1-c1ncc(CN)cn1` [compound 1007, [2-[4-fluoro-2-[2-methyl-5-(oxan-4-yl)pyrazol-3-yl]oxyphenyl]pyrimidin-5-yl]methanamine], 10 to 1000 nM; that for `Cn1nc(C2CCOCC2)cc1Oc1cc(F)ccc1-c1ccc(CN)cn1` [compound 1008, [6-[4-fluoro-2-[2-methyl-5-(oxan-4-yl)pyrazol-3-yl]oxyphenyl]pyridin-3-yl]methanamine], 10 to 1000 nM. Turning to `Cn1nc(C2CCOCC2)cc1Oc1cc(F)ccc1-c1ncc(CCN)cn1` [compound 1009, 2-[2-[4-fluoro-2-[2-methyl-5-(oxan-4-yl)pyrazol-3-yl]oxyphenyl]pyrimidin-5-yl]ethanamine], the IC50 is 10 to 1000 nM. The result for `Cn1nc(C2CCOCC2)cc1Oc1cc(F)ccc1-c1ccc(CCN)cn1` [compound 1010, 2-[6-[4-fluoro-2-[2-methyl-5-(oxan-4-yl)pyrazol-3-yl]oxyphenyl]pyridin-3-yl]ethanamine] reads less than 10 nM.
